Laboratory results reported in patent US20090291857A1, “METHODS TO IDENTIFY INHIBITORS OF THE UNFOLDED PROTEIN RESPONSE” (THE BOARD OF TRUSTEES OF THE LELAND STANFORD JUNIOR …, priority 2006, published 2009).

Tests used:
CHOP/GADD153 = CHOP/GADD153 expression in hypoxic HT1080 cells (Western blot); type: cell-based, human; conditions: 2.5 μM, hypoxia 6-12 hours
Experimental: A. Effect of irestatin 9389 on PERK and ATF6 pathways. HT1080 cells were treated with vehicle alone (lanes 1-4) or 2.5 μM irestatin 9389 (lanes 5-8) and cultured under aerobic conditions for 18 hours (N) or shifted to hypoxia for the indicated times. Protein lysates were analyzed by Western blot analysis using antisera specific for ATF6 (top), CHOP/GADD153 (middle) or actin (bottom). Arrow indicates the cleaved, transcriptionally active form of ATF6. B. Cleavage of caspase-3 in irestatin-treated cells under hypoxia. HT1080 cells were cultured in normoxia (N) or under hypoxia for 36 hours (H 36) in absence or presence of irestatin 9389 (2.5 μM). Arrows indicate proteolytically cleaved caspase-3. C. Colony formation assay. HT1080 cells were treated as in B under normoxia (N) or hypoxia for 48 hours (H 48). Cells were harvested, counted, and allowed to grow under normal culture conditions for 11-12 days. Colonies were visualized with crystal violet staining. D. Quantification of clonogenic survival assay. Values represent the mean+/−SEM from at least 4 independent experiments. E. TUNEL staining of cells treated as in C. F. Quantification of TUNEL-positive cells. Values represent the mean+/−SEM from at least 3 experiments. […] Cells were harvested at the indicated times and counted by hemocytometer. Values represent the mean calculated from triplicate experiments +/−SEM. […]

[1] = tested on: HT1080 s.c. tumor xenografts; type: in vivo; conditions: 50 mg/kg i.p. every other day, 6 doses
Experimental: Female 4-6 week-old SCID (B6.CB17) mice supplied by Stanford University Animal Facility were housed in the same facility (American Association of Laboratory Animal Care-approved) with 12 hour light cycles. Food and water were provided ad libitum. All experiments were approved by the institutional care and use committee. The potential toxicities of irestatin 9389 were examined in SCID mice injected i.p. once daily over 4 consecutive days with increasing doses of irestatin 9389 or vehicle control. […] For xenografts, 2×10^6 HT1080 fibrosarcoma cells were resuspended in 50-75 μl PBS and injected s.c. in the dorsal flanks of host mice. When the implanted tumors reached a mean volume of ˜150 mm^3, mice were randomly assigned into different treatment groups. Mice were dosed by i.p. bolus injection with either vehicle (50% DMSO, 20% cremophor EL, 30% ethanol) or irestatin 9389 (50 mg/kg). Tumors (6-8 per group) were measured every 2-4 days with calipers. Tumor volume was calculated using the formula [(W^2×L) 0.52] where W=width and L=length.
A. Irestatin 9389 impairs IREla activity in implanted tumor xenografts. […] Tumor volumes were calculated based on caliper measurements taken every 3-5 days. Data points represent the mean volume calculated from at least 7 tumors per group, with SEM shown in one direction. […]

`Cc1csc(NC(=O)CSc2nc3c(c(C(F)(F)F)c2C#N)CCC3)n1` [Compound 9389] was tested, and the “expression of CHOP/GADD153” value (CHOP/GADD153) was “increased” and the antitumor effect [1] was “significant cytostatic antitumor effects”.
